This is an account of results in ChEMBL document CHEMBL4118098, “Discovery of DS28120313 as a potent orally active hepcidin production inhibitor: Design and optimization of novel 4,6-disubstituted indazole derivatives” (Bioorg Med Chem Lett, 2017).

A short description of series [1]: Tmax in C57BL/6J mouse at 30 mg/kg, po by LC-MS/MS analysis. The format is ADME, organism-based. Conditions: in vivo.
Series [2] has as its target Casein kinase I isoform delta (Homo sapiens) (UniProt P48730). In words: Inhibition of CK1-delta (unknown origin) at 0.164 uM relative to control.
For series [3], the target named is Protein kinase C epsilon type (Homo sapiens) (UniProt Q02156). In words: Inhibition of PKC-epsilon (unknown origin) at 0.164 uM relative to control.
Series [4] deals with T1, cGMP-dependent protein kinase 1 (Homo sapiens) (UniProt Q13976).
T1 sequence (whole entry): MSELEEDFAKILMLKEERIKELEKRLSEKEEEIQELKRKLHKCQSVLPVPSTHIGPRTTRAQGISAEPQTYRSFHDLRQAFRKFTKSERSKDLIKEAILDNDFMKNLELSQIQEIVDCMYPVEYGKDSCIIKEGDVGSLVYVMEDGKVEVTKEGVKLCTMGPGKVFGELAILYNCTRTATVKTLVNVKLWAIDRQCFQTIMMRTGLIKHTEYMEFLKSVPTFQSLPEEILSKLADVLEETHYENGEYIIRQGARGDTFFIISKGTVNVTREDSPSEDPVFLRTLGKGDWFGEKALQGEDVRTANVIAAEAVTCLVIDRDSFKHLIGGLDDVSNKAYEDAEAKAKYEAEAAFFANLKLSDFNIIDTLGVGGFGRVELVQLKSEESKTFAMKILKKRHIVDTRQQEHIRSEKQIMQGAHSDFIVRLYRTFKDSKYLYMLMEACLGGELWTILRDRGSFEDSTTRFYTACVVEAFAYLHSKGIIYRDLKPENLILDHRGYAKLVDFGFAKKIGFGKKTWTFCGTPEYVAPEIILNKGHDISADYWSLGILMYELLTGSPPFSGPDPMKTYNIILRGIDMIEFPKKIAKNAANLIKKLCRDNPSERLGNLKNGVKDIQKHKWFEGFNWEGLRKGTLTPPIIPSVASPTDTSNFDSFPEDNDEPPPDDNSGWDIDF
In words: Inhibition of PKG-alpha (unknown origin) at 0.164 uM relative to control.

For series [5], the target named is Insulin-like growth factor 1 receptor (Homo sapiens) (UniProt P08069). In words: Inhibition of IGF1R (unknown origin) at 0.164 uM relative to control.
Series [6] has as its target Mitogen-activated protein kinase kinase kinase kinase 4 (Homo sapiens) (UniProt O95819). In words: Inhibition of HGK (unknown origin) at 0.164 uM relative to control.
In series [7] the target is Tyrosine-protein kinase SYK (Homo sapiens) (UniProt P43405). In words: Inhibition of SYK (unknown origin) at 0.164 uM relative to control.
Series [8] has as its system Tyrosine-protein kinase ABL1 (Homo sapiens), P00519 [Q252H]. In words: Inhibition of Abl Q252H mutant (unknown origin) at 0.164 uM relative to control.
The target in series [9] is Ephrin type-A receptor 3 (Homo sapiens) (UniProt P29320). In words: Inhibition of EPHA3 (unknown origin) at 0.164 uM relative to control.
Series [10] concerns Tyrosine-protein kinase ABL1 (Homo sapiens), P00519 [E255K]. In words: Inhibition of ABL1 E255K mutant (unknown origin) at 0.164 uM relative to control.
Series [11] addresses STE20-like serine/threonine-protein kinase (Homo sapiens) (UniProt Q9H2G2). In words: Inhibition of SLK (unknown origin) at 0.164 uM relative to control.
Series [12] has as its target Tyrosine-protein kinase Fer (Homo sapiens) (UniProt P16591). In words: Inhibition of Fer (unknown origin) at 0.164 uM relative to control.
For series [13], the target named is Tyrosine-protein kinase Blk (Homo sapiens) (UniProt P51451). In words: Inhibition of BLK (unknown origin) at 0.164 uM relative to control.
The target in series [14] is Tyrosine-protein kinase ABL1 (Homo sapiens) (UniProt P00519). In words: Inhibition of ABL (unknown origin) at 0.19 uM relative to control.
Series [15] addresses Ribosomal protein S6 kinase alpha-2 (Homo sapiens) (UniProt Q15349). In words: Inhibition of RSK3 (unknown origin) at 0.19 uM relative to control.
In series [16] the target is Maternal embryonic leucine zipper kinase (Homo sapiens) (UniProt Q14680). In words: Inhibition of MELK (unknown origin) at 0.19 uM relative to control.
Series [17] concerns Tyrosine-protein kinase ABL1 (Homo sapiens), P00519 [E255K]. In words: Inhibition of ABL1 E255K mutant (unknown origin) at 0.19 uM relative to control.
Series [18] has as its system Proto-oncogene tyrosine-protein kinase receptor Ret (Homo sapiens), P07949 [V804L]. In words: Inhibition of Ret V804L mutant (unknown origin) at 0.19 uM relative to control.
For series [19], the system named is Mitogen-activated protein kinase 14 (Homo sapiens), Q16539 [T106M]. In words: Inhibition of SAPK2a T106M mutant (unknown origin) at 0.19 uM relative to control.
Series [20] has as its target Serine/threonine-protein kinase Nek1 (Homo sapiens) (UniProt Q96PY6). In words: Inhibition of NEK1 (unknown origin) at 0.19 uM relative to control.
The target in series [21] is MAP kinase-interacting serine/threonine-protein kinase 1 (Homo sapiens) (UniProt Q9BUB5). In words: Inhibition of MNK1 (unknown origin) at 0.19 uM relative to control.
For series [22], the target named is Protein-tyrosine kinase 2-beta (Homo sapiens) (UniProt Q14289). In words: Inhibition of PYK2 (unknown origin) at 0.19 uM relative to control.
Series [23] deals with Dual specificity protein kinase CLK3 (Homo sapiens) (UniProt P49761). In words: Inhibition of CLK3 (unknown origin) at 0.19 uM relative to control.
Series [24] has as its target Protein kinase C alpha type (Homo sapiens) (UniProt P17252). In words: Inhibition of PKC-alpha (unknown origin) at 0.19 uM relative to control.
In series [25] the target is Protein kinase C beta type (Homo sapiens) (UniProt P05771). In words: Inhibition of PKC-beta1 (unknown origin) at 0.19 uM relative to control.

Broadly, the Tmax is the time from dosing to the highest level. Usually inhibition stands for the drop in the measured response relative to a control, in per cent. Consider `COC(=O)Nc1cc(-c2c(C3CC3)n[nH]c2C)cc2[nH]ncc12`, for which the Tmax in series [1] amounted to 40.2 min. The inhibition in series [2] was 4.7%; in series [3], -4%; in series [4], 0.7%; in series [5], 5.7%; in series [6], 5%; in series [7] it was 8%. For the same molecule, the inhibition was 0.3% in [8]; -6.7% in series [9]; -2.3% in series [10]; 4.7% in series [11]; -1.3% in [12]; 6.7% in [13].
In the case of `Cc1[nH]nc(C2CC2)c1-c1ccc2c(-c3ccc(N4CCN(C)CC4)nc3)n[nH]c2c1`, the inhibition in series [14] is 83.7%; in series [15], -2.3%; in series [16], 51%; in [17] it was 64.7%; in [18] it was 7%; in [19], 0.3%. For the same molecule, the inhibition is 1.3% in series [20]; -1% in series [21]; -1.7% in series [22]; -1.3% in series [23]; -1.7% in series [24]; 3% in series [25].
